From patent US11739074B2, “Ras inhibitors” (Revolution Medicines, Inc., priority 2019, dated 2023)
Like-named read-outs stand apart in the source and are kept apart here.

Columns and labels:
Format in all cases: cell-based
[1] = system: AsPC-1 (K-Ras G12D); experiment: CellTiter-Glo cell viability assay, AsPC-1; conditions: Homo sapiens, ASPC1, 120 h
How it was run: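 Compounds dispensed directly onto seeded AsPC-1 (K-Ras G12D) or NCI-H358 (K-Ras G12C) cells; CellTiter-Glo luminescence read on day 5 after ~30 min equilibration to room temperature. Signal normalized to DMSO average (%) and fit by four-parameter logistic.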

[2] = system: NCI-H358 (K-Ras G12C); experiment: CellTiter-Glo cell viability assay, H358; conditions: Homo sapiens, NCI-H358, 120 h
Protocol: Determination of Cell Viability in RAS Mutant Cancer Cell Lines
Protocol: CellTiter-Glo® Cell Viability Assay
Note—The following protocol describes a procedure for monitoring cell viability of K-Ras mutant cancer cell lines in response to a compound of the invention. Other RAS isoforms may be employed, though the number of cells to be seeded will vary based on cell line used.
Test compounds (132.5 nL) were directly dispensed into the assay plates containing cells. […] On day 5, assay plates and their contents were equilibrated to room temperature for approximately 30 minutes. […] Luminescence was measured using the PerkinElmer Enspire. Data were normalized by the following: (Sample signal/Avg. DMSO)*100. The data were fit using a four-parameter logistic fit.

[3] = system: AsPC-1 (K-Ras G12D); experiment: Potency assay: pERK in AsPC-1 cells; conditions: Homo sapiens
[4] = read-out: AsPC-1 Cell Viability IC50, AsPC-1, K-Ras G12D, 5-day treatment
[5] = read-out: H358 Cell Viability IC50, NCI-H358, K-Ras G12C, 5-day treatment
[6] = ASPC1, read-out: pERK EC50 (AsPC-1 KRAS G12D)
[7] = AsPC-1, K-Ras G12D, 5-day treatment, read-out: AsPC-1 Cell Viability IC50
[8] = NCI-H358, K-Ras G12C, 5-day treatment, read-out: H358 Cell Viability IC50
[9] = ASPC1, AsPC-1 cells, K-Ras G12D, read-out: pERK EC50 (AsPC-1 KRAS G12D)

SMILES: CCn1c(-c2cccnc2[C@H](C)OC)c2c3cc(ccc31)-c1cc(O)cc(c1)C[C@H](NC(=O)[C@H](C(C)C)N(C)C(=O)CN(C)C(=O)[C@@H]1CN1CCCOC)C(=O)N1CCC[C@H](N1)C(=O)OCC(C)(C)C2 (stereo partly drawn) [Compound 137]
- IC50 [1, 4]: 100 to 1000 nM
- IC50 [2, 5]: < 10 nM
- EC50 [3, 6]: < 5000 nM

SMILES: CCn1c(-c2cccnc2[C@H](C)OC)c2c3cc(ccc31)-c1cc(O)cc(c1)C[C@H](NC(=O)[C@H](C(C)C)N(C)C(=O)CNC(=O)[C@@H]1N[C@@H]1C1CC1)C(=O)N1CCC[C@H](N1)C(=O)OCC(C)(C)C2 [Compound 141]
- IC50 [1, 4]: 100 to 1000 nM
- IC50 [2, 5]: 100 to 1000 nM
- EC50 [3, 6]: < 5000 nM

SMILES: CCn1c(-c2cccnc2[C@H](C)OC)c2c3cc(ccc31)-c1cc(O)cc(c1)C[C@H](NC(=O)[C@H](C(C)C)N(C)C(=O)CN(C)C(=O)[C@H]1CN1C(C)C)C(=O)N1CCC[C@H](N1)C(=O)OCC(C)(C)C2 (stereo partly drawn) [Compound 142]
- IC50 [1, 4]: 100 to 1000 nM
- IC50 [2, 5]: < 10 nM
- EC50 [3, 6]: < 5000 nM

SMILES: CCn1c(-c2cccnc2[C@H](C)OC)c2c3cc(ccc31)-c1cc(O)cc(c1)C[C@H](NC(=O)[C@H](C(C)C)N1CC[C@]3(CCN(C(=O)[C@H]4CN4)C3)C1=O)C(=O)N1CCC[C@H](N1)C(=O)OCC(C)(C)C2 [Compound 146]
- IC50 [1, 7]: 100 to 1000 nM
- IC50 [2, 8]: < 10 nM
- EC50 [3, 9]: < 5000 nM

SMILES: CCn1c(-c2cccnc2[C@H](C)OC)c2c3cc(ccc31)-c1cc(O)cc(c1)C[C@H](NC(=O)[C@H](C(C)C)N(C)C(=O)CN(C)C(=O)[C@H]1CN1Cc1ccccc1F)C(=O)N1CCC[C@H](N1)C(=O)OCC(C)(C)C2 (stereo partly drawn) [Compound 155]
- IC50 [1, 4]: 100 to 1000 nM
- IC50 [2, 5]: < 10 nM
- EC50 [3, 6]: < 5000 nM

SMILES: CCn1c(-c2cccnc2[C@H](C)OC)c2c3cc(ccc31)-c1cc(O)cc(c1)C[C@H](NC(=O)[C@H](C(C)C)N(C)C(=O)CN(C)C(=O)[C@H]1CN1Cc1ccccc1CO)C(=O)N1CCC[C@H](N1)C(=O)OCC(C)(C)C2 (stereo partly drawn) [Compound 156]
- IC50 [1, 4]: 100 to 1000 nM
- IC50 [2, 5]: < 10 nM
- EC50 [3, 6]: < 5000 nM

SMILES: CCn1c(-c2cccnc2[C@H](C)OC)c2c3cc(ccc31)-c1cc(O)cc(c1)C[C@H](NC(=O)[C@H](C(C)C)N(C)C(=O)CN(C)C(=O)[C@@H]1CN1CCOC)C(=O)N1CCC[C@H](N1)C(=O)OCC(C)(C)C2 (stereo partly drawn) [Compound 160]
- IC50 [1, 4]: 100 to 1000 nM
- IC50 [2, 5]: < 10 nM
- EC50 [3, 6]: < 5000 nM

SMILES: CCn1c(-c2cccnc2[C@H](C)OC)c2c3cc(ccc31)-c1cc(O)cc(c1)C[C@H](NC(=O)[C@H](C(C)C)N(C)C(=O)[C@H]1CCCN(C(=O)[C@H]3CN3)C1)C(=O)N1CCC[C@H](N1)C(=O)OCC(C)(C)C2 [Compound 165]
- IC50 [1, 7]: 1000 to 10000 nM
- IC50 [2, 8]: < 10 nM
- EC50 [3, 9]: < 5000 nM

SMILES: CCn1c(-c2cccnc2[C@H](C)OC)c2c3cc(ccc31)-c1csc(n1)C[C@H](NC(=O)[C@H](C(C)C)N(C)C(=O)N1CCN(C(=O)[C@@H]3CN3)CC1)C(=O)N1CCC[C@H](N1)C(=O)OCC(C)(C)C2 [Compound 168]
- IC50 [1, 7]: 100 to 1000 nM
- IC50 [2, 8]: 10 to 100 nM
- EC50 [3, 9]: < 5000 nM

SMILES: CCn1c(-c2cccnc2[C@H](C)OC)c2c3cc(ccc31)-c1csc(n1)C[C@H](NC(=O)[C@H](C(C)C)N(C)C(=O)N1CCN(C(=O)[C@H]3CN3)CC1)C(=O)N1CCC[C@H](N1)C(=O)OCC(C)(C)C2 [Compound 169]
- IC50 [1, 7]: 100 to 1000 nM
- IC50 [2, 8]: 10 to 100 nM
- EC50 [3, 9]: < 5000 nM

SMILES: CCn1c(-c2cccnc2[C@H](C)OC)c2c3cc(ccc31)-c1cc(O)cc(c1)C[C@H](NC(=O)[C@H](C1CCCC1)N(C)C(=O)CN(C)C(=O)[C@@H]1N[C@@H]1C1CC1)C(=O)N1CCC[C@H](N1)C(=O)OCC(C)(C)C2 [Compound 170]
- IC50 [1, 7]: 10 to 100 nM
- IC50 [2, 8]: 10 to 100 nM
- EC50 [3, 9]: < 5000 nM

SMILES: CCn1c(-c2cccnc2[C@H](C)OC)c2c3cc(ccc31)-c1cc(O)cc(c1)C[C@H](NC(=O)[C@H](C(C)C)N(C)C(=O)[C@@]1(F)CCN(C(=O)[C@H]3CN3)C1)C(=O)N1CCC[C@H](N1)C(=O)OCC(C)(C)C2 [Compound 171]
- IC50 [1, 7]: 100 to 1000 nM
- IC50 [2, 8]: < 10 nM
- EC50 [3, 9]: < 5000 nM

SMILES: CCn1c(-c2cccnc2[C@H](C)OC)c2c3cc(ccc31)-c1cc(O)cc(c1)C[C@H](NC(=O)[C@H](C1CCCC1)N1CC[C@@]3(CCN(C(=O)[C@H]4CN4)C3)C1=O)C(=O)N1CCC[C@H](N1)C(=O)OCC(C)(C)C2 [Compound 174]
- IC50 [1, 7]: 100 to 1000 nM
- IC50 [2, 8]: < 10 nM
- EC50 [3, 9]: < 5000 nM

SMILES: CCn1c(-c2cccnc2[C@H](C)OC)c2c3cc(ccc31)-c1cc(O)cc(c1)C[C@H](NC(=O)[C@H](C(C)C)N(C)C(=O)[C@@H]1CCN(C(=O)[C@H]3CN3)C1)C(=O)N1CCC[C@H](N1)C(=O)OCC(C)(C)C2 [Compound 186]
- IC50 [1, 7]: 100 to 1000 nM
- IC50 [2, 8]: < 10 nM
- EC50 [3, 9]: < 5000 nM
